Measured values as given in the supplement of paper PMC11451515.

Test system: P12-Ichikawa
Experiment: cell viability relative to DMSO control; higher = less cytotoxic
Details: 48 h
In short: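 Library compounds in DMSO were pin-dosed into 1536-well plates (5 μl) holding NOMO1 or SEM (500 cells/well) or P12-Ichikawa (1000 cells/well) leukemia cells, across an 11-point threefold series of 47 μM to 0.79 nM. Each cell line had been adapted for at least four passages in each medium. CellTiter-Glo One luminescence was read after 48 h at 37°C. Viability is the per-plate percentage relative to DMSO wells, with cell-free wells as background.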

[1] = HPLM + 10% dialyzed FBS, 0.000781 µM
[2] = HPLM + 10% dialyzed FBS, 0.00234 µM
[3] = HPLM + 10% dialyzed FBS, 0.00702 µM
[4] = HPLM + 10% dialyzed FBS, 0.0211 µM
[5] = HPLM + 10% dialyzed FBS, 0.0632 µM
[6] = HPLM + 10% dialyzed FBS, 0.19 µM
[7] = HPLM + 10% dialyzed FBS, 0.569 µM
[8] = HPLM + 10% dialyzed FBS, 1.71 µM
[9] = HPLM + 10% dialyzed FBS, 5.12 µM
[10] = HPLM + 10% dialyzed FBS, 15.4 µM
[11] = HPLM + 10% dialyzed FBS, 46.1 µM
[12] = RPMI 5 mM glucose + 10% FBS, 0.000781 µM
[13] = RPMI 5 mM glucose + 10% FBS, 0.00234 µM
[14] = RPMI 5 mM glucose + 10% FBS, 0.00702 µM
[15] = RPMI 5 mM glucose + 10% FBS, 0.0211 µM
[16] = RPMI 5 mM glucose + 10% FBS, 0.0632 µM
[17] = RPMI 5 mM glucose + 10% FBS, 0.19 µM
[18] = RPMI 5 mM glucose + 10% FBS, 0.569 µM
[19] = RPMI 5 mM glucose + 10% FBS, 1.71 µM
[20] = RPMI 5 mM glucose + 10% FBS, 5.12 µM
[21] = RPMI 5 mM glucose + 10% FBS, 15.4 µM
[22] = RPMI 5 mM glucose + 10% FBS, 46.1 µM
[23] = RPMI 5 mM glucose + 10% dialyzed FBS, 0.000781 µM
[24] = RPMI 5 mM glucose + 10% dialyzed FBS, 0.00234 µM
[25] = RPMI 5 mM glucose + 10% dialyzed FBS, 0.00702 µM
[26] = RPMI 5 mM glucose + 10% dialyzed FBS, 0.0211 µM
[27] = RPMI 5 mM glucose + 10% dialyzed FBS, 0.0632 µM
[28] = RPMI 5 mM glucose + 10% dialyzed FBS, 0.19 µM
[29] = RPMI 5 mM glucose + 10% dialyzed FBS, 0.569 µM
[30] = RPMI 5 mM glucose + 10% dialyzed FBS, 1.71 µM
[31] = RPMI 5 mM glucose + 10% dialyzed FBS, 5.12 µM
[32] = RPMI 5 mM glucose + 10% dialyzed FBS, 15.4 µM
[33] = RPMI 5 mM glucose + 10% dialyzed FBS, 46.1 µM

SMILES	cell viability [1] [%]	cell viability [2] [%]	cell viability [3] [%]	cell viability [4] [%]	cell viability [5] [%]	cell viability [6] [%]	cell viability [7] [%]	cell viability [8] [%]	cell viability [9] [%]	cell viability [10] [%]	cell viability [11] [%]	cell viability [12] [%]	cell viability [13] [%]	cell viability [14] [%]	cell viability [15] [%]	cell viability [16] [%]	cell viability [17] [%]	cell viability [18] [%]	cell viability [19] [%]	cell viability [20] [%]	cell viability [21] [%]	cell viability [22] [%]	cell viability [23] [%]	cell viability [24] [%]	cell viability [25] [%]	cell viability [26] [%]	cell viability [27] [%]	cell viability [28] [%]	cell viability [29] [%]	cell viability [30] [%]	cell viability [31] [%]	cell viability [32] [%]	cell viability [33] [%]
CN(C)c1ccc(Nc2nc(N)n(C(=O)c3c(F)cccc3F)n2)cc1	106	115	125	79.5	122	127	121	117	114	29.1	88.2	122	116	115	70	132	126	130	137	114	28.8	60.2	114	115	120	72.4	125	125	118	126	120	41.2	68.3
N[C@@H](CC(=O)N1CCn2c(nnc2C(F)(F)F)C1)Cc1cc(F)c(F)cc1F	100	105	104	113	109	104	102	103	98.2	97	94.7	91	103	97.3	95.8	99.2	99.7	92.8		95.4	89.5	88.3	98.4	94.5	97.3	100	100	84.9	90.9	89.4	91.4	91.3	88
Cc1[nH]c(/C=C2\C(=O)Nc3ccc([S+](=O)([O-])Cc4c(Cl)cccc4Cl)cc32)c(C)c1C(=O)N1CCC[C@@H]1CN1CCCC1	105	108	99.7	101	98.8	111	108	97.9	91.5	87.4	78.3	99.4	103	105	99.7	94.6	95.3	107	98.4	81.5	85.5	84.4	98	95.8	93.7	101	99	102	95	91.6	69.5	78.1	53
COc1cc2ncnc(Nc3cccc(Br)c3)c2cc1OC	88.8	101	103	100	97.6	105	110	98.4	102	111	106	87.9	97.6	105	103	108	107	117	99.8	114	112	106	95.9	91.5	106	104	114	112	113	109	109	112	105
Cc1ncc([N+](=O)[O-])n1CCO	116	121	126	125	118	123	120	132	124	110	123	106	115	123	127	112	112	127	124	123	116	120	121	129	122	129	135	135	127	125	131	129	128
CC(C)(C)NC(=O)[C@H]1CC[C@H]2[C@@H]3CC[C@H]4NC(=O)\C=C/[C@]4(C)[C@H]3CC[C@]12C	101	109	106	107	102	103	111	107	109	27.7	12.7	83.5	104	103	108	109	109	109	115	103	31.6	10.8	94.1	100	102	100	107	112	108	115	113	81.4	35.6
Cc1cn(CCN2CCN(c3ccccc3-c3cc(C#N)cc(C(=O)NCCCN4CCCC4)c3)CC2)c2ccccc12	110	109	106	104	109	115	119	120	91.2	8.78	6.19	107	107	103	115	118	118	124	103	90.8	23.2	15.6	118	119	117	117	124	126	128	111	93	26.9	19.9
